Results reported in patent US20240109898A1, “SUBSTITUTED PYRAZOLO[1,5-A]PYRIMIDINE-7-AMINE DERIVATIVES, COMPOSITIONS AND PHARMACEUTICAL USES THEREOF” (SHANGHAI HAIYAN PHARMACEUTICAL TECHNOLOGY CO., LTD., priority 2021, published 2024).

What was measured:
Assay type in all cases: biochemical
CDK9/CycT = CDK9/CycT (Homo sapiens (Human), UniProt P50750); assay: LANCE Ultra kinase activity inhibition assay, CDK9/CycT; conditions: ATP 10 μM, highest compound concentration 1 μM
Protocol: (§1) In the following LANCE Ultra test methods, kinase reagents were purchased from Carna Bioscience, reaction substrates and detection reagents were purchased from PerkinElmer, and the remaining reagents were purchased from Thermo scientific.
The inhibiting effects on the kinase activity of CDK1/CycB (Carna bioscience, #04-102), CDK2/CycA (Carna bioscience, #04-103) and CDK9/CycT (Carna bioscience, #04-110) were determined by using LANCE Ultra method.
The kinase activity test was performed using a system (10 μL) containing the following components: substrate diluent prepared by mixing CDK kinase diluent, Ulight-Myelic basic protein (Perkin Elmer, #TRF-0109, hereinafter referred to as U-MBP) and ATP (Thermo scientific, #PV3227); and the compounds (i.e., analyte) prepared in the examples of the present disclosure. The assay for each kinase includes three test groups, i.e., a background group (Blank), a non-inhibition group (PC), and compound testing group (Test). The components included in each test group were as follows:
(§2) Working concentrations of the respective components of the Test groups in different kinase reactions were as follows.
(§3) Compounds: 10 mM of the compound to be tested was dissolved at room temperature and diluted with DMSO to gradient concentrations, followed by diluting with deionized water to prepare a 4× working solution of the compound, and the content of DMSO was 2%. The highest concentration of compound used in the CDK1 and CDK2 assays was 10 μM, and that in CDK9 assay was 1 μM.
1.33×reaction buffer: the components include 26.7 mM of MOPS, 6.67 mM of MgCl2, and 0.0133% Tween-20, which were stored in a 4° C. refrigerator and protected from light after preparation. Freshly prepared DTT was added to a final concentration of 5.33 mM before use.
(§4) The working concentration of DMSO in the reaction was 0.5%.
(§5) The above-mentioned components, after being mixed, were placed on a shaker and incubated at room temperature in the dark for 1 h. 10 μL of test solution was then added to all test groups (including Blank, PC and Test groups).
10 μL of test solution contains the following components: 16 mM of EDTA (Thermo scientific, #15575), 1 nM of phosphorylated U-MBP protein antibody (Perkin Elmer, #TRF-0201), and 1× detection damping fluid (Perkin Elmer, #CR97-100).
After the test solution was added, the solution was placed on a shaker and continually incubated at room temperature for 1 h in the dark. At the end of incubation, Victor X5 fluorescence microplate reader of Perkin Elmer was used to read the signal; the wavelength of excitation light was 320 nm, and the wavelengths of emission light were 615 nm and 665 nm. The inhibition rate was calculated as below.
1. For all groups, a value of 665 nm/615 nm (hereinafter referred to as Ratio) was calculated, and an inhibition rate was calculated based on the Ratio of each group;
(§6) 2. Inhibition rate=(PCRatio-TestRatio)/(PCRatio-BlankRatio)*100%; and
(§7) 3. XLFIT 5.0 software (IDBS, UK) was used to fit a graph by using the logarithmic value of the compound concentration as the X-axis and the inhibition rater as the Y-axis, and a four-parameter model was used to calculate the half inhibitory concentration IC50 of the compound.

CDK2/CycA = CDK2/CycA (Homo sapiens (Human), UniProt P24941); assay: LANCE Ultra kinase activity inhibition assay, CDK2/CycA; conditions: ATP 10 μM, highest compound concentration 10 μM
Source text: as §1
(§8) The assay for each kinase includes three test groups, i.e., a background group (Blank), a non-inhibition group (PC), and compound testing group (Test). The components included in each test group were as follows:
as §2, §3, §4, §5
(§9) After the test solution was added, the solution was placed on a shaker and continually incubated at room temperature for 1 h in the dark. […] The inhibition rate was calculated as below.
as §6, §7

CDK1/CycB = CDK1/CycB (Homo sapiens (Human), UniProt P06493); assay: LANCE Ultra kinase activity inhibition assay, CDK1/CycB; conditions: ATP 4 μM, highest compound concentration 10 μM
Source text: as §1, §8, §2, §3, §4, §5, §9, §6, §7

Chain of CDK9/CycT (P50750 whole entry): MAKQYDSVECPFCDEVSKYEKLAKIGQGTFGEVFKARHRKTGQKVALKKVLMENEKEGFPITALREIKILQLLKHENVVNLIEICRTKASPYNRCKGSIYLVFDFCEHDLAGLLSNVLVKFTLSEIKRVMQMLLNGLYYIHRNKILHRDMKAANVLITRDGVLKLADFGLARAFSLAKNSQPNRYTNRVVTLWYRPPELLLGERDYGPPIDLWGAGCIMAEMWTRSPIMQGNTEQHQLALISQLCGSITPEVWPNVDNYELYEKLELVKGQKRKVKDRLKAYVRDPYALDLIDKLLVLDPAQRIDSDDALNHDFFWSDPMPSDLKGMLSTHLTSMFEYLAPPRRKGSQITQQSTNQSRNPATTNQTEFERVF
Chain of CDK9/CycT (O60563 whole entry partner): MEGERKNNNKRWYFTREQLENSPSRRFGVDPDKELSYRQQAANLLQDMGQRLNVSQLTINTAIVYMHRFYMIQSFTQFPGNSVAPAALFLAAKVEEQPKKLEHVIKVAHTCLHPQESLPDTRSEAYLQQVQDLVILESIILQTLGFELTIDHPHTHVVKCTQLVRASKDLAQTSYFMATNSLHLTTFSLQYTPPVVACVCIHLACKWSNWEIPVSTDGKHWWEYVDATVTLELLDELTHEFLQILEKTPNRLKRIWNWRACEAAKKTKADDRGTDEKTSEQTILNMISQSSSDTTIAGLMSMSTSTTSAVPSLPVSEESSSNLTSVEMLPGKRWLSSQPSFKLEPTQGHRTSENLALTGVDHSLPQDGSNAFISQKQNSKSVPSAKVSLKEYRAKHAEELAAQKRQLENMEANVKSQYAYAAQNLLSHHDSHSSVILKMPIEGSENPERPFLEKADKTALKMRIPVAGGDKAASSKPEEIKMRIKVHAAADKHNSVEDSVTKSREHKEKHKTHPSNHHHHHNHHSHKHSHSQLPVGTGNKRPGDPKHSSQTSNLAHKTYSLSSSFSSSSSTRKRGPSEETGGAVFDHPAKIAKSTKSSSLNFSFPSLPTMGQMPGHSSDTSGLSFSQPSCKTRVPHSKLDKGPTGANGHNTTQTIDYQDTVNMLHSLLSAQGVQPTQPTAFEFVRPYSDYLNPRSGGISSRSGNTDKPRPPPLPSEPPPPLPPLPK
Chain of CDK1/CycB (P06493 whole entry): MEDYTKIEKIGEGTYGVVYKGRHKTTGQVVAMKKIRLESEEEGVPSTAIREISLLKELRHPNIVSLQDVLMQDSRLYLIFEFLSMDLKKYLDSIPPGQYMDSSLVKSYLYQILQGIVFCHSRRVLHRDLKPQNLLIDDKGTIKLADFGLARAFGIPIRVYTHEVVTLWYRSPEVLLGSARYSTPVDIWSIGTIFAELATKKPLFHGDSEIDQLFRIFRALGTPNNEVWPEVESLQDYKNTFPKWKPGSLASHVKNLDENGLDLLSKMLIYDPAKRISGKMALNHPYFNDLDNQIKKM
Chain of CDK1/CycB (P14635 whole entry partner): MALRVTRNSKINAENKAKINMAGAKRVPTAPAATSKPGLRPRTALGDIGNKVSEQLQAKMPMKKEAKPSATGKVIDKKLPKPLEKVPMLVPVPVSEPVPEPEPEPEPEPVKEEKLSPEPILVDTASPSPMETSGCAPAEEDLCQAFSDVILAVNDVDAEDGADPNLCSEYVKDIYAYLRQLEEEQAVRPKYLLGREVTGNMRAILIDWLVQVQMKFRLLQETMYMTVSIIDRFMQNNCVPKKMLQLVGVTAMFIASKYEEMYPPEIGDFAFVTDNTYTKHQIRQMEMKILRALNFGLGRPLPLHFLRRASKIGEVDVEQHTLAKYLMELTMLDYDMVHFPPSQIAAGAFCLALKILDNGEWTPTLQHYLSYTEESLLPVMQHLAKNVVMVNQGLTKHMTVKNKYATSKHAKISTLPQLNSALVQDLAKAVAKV

| IC50 (CDK9/CycT) [µM] | IC50 (CDK2/CycA) [µM] | IC50 (CDK1/CycB) [µM] | SMILES |
| --- | --- | --- | --- |
| 0.04 | – | – | Cc1cnn2c(N[C@H]3CC[C@H](N)C3)cc([C@H](C)C3CCC3)nc12 (single isomer, unassigned) [Compound Z-38-P1] |
| 0.016 | – | – | Cc1cnn2c(N[C@H]3CC[C@H](N)C3)cc([C@H](C)C3CCC3)nc12 (single isomer, unassigned) [Compound Z-38-P2] |
| 0.014 | 0.828 | 0.716 | N#Cc1cnn2c(N[C@H]3CC[C@H](N)C3)cc(C(C3CC3)C3CC3)nc12 [Compound Z-4] |
| 0.023 | – | – | C[C@@H](c1cc(N[C@H]2CC[C@H](N)C2)n2nccc2n1)C1CC1 [Compound Z-5-1] |
| 0.017 | – | – | CC(c1cc(N[C@H]2CC[C@H](N)C2)n2nccc2n1)C1CC1 (stereo partly drawn) [Compound Z-5] |
| 0.03 | – | – | C[C@@H](c1cc(N[C@H]2CC[C@H](N)C2)n2nccc2n1)C1CCC1 [Compound Z-11-P2] |
| 0.022 | 1.27 | 1.27 | CCc1cnn2c(N[C@H]3CC[C@H](N)C3)cc(C(C3CC3)C3CC3)nc12 [Compound Z-16] |
| 0.021 | 8.71 | 9.87 | Cc1cnn2c(N[C@H]3CC[C@H](N)C3)cc(CC3(C)CC3)nc12 [Compound Z-25] |
| 0.078 | > 10 | > 10 | Cc1cnn2c(N[C@H]3CC[C@H](N)C3)cc([C@@H](C)C3(C)CC3)nc12 [Compound Z-26-P2] |
| 0.026 | 7.06 | 3.92 | Cc1cnn2c(N[C@H]3CC[C@H](N)C3)cc(C(C)C3(C)CC3)nc12 (stereo partly drawn) [Compound Z-26] |
| 0.047 | > 10 | 1.21 | C[C@@H](c1cc(N[C@H]2CC[C@H](N)C2)n2nccc2n1)C1(C)CC1 [Compound Z-27-P1] |
| 0.012 | > 10 | 2.39 | CC[C@H](c1cc(N[C@H]2CC[C@H](N)C2)n2nccc2n1)C1CC1 [Compound Z-28-P2] |
| 0.011 | 3.07 | 1.86 | CCC(c1cc(N[C@H]2CC[C@H](N)C2)n2nccc2n1)C1CC1 (stereo partly drawn) [Compound Z-28] |
| 0.01 | 0.968 | 1.12 | CC[C@H](c1cc(N[C@H]2CC[C@H](N)C2)n2ncc(C)c2n1)C1CC1 [Compound Z-30-P1] |
| 0.009 | 0.967 | 0.996 | Cc1cnn2c(N[C@H]3CC[C@H](N)C3)cc(C(C)C3CC3)nc12 (stereo partly drawn) [Compound Z-32] |
| 0.006 | 0.355 | 0.347 | N[C@H]1CC[C@H](Nc2cc(C(C3CC3)C3CC3)nc3c(C(F)(F)F)cnn23)C1 [Compound Z-33] |
| 0.006 | 2.11 | 0.924 | CC(C)(c1cc(N[C@H]2CC[C@H](N)C2)n2ncc(F)c2n1)C1CC1 [Compound Z-36] |
| – | > 10 | 8.82 | NN1CCC(Nc2cc(C(C3CC3)C3CC3)nc3ccnn23)C1 (stereo not drawn) [Compound Z-59] |

The remaining lines, values behind:

| SMILES | IC50 (CDK9/CycT) [µM] | IC50 (CDK2/CycA) [µM] | IC50 (CDK1/CycB) [µM] |
| --- | --- | --- | --- |
| N[C@H]1CC[C@H](Nc2cc(C(C3CC3)C3CC3)nc3ccnn23)C1 [Compound Z-1] | 0.018 | 5.65 | 1.96 |
| N[C@H]1CC[C@H](Nc2cc(C(C3CC3)C3CC3)nc3c(Cl)cnn23)C1 [Compound Z-2] | 0.006 | 0.191 | 0.161 |
| N[C@H]1CC[C@H](Nc2cc(CC3CC3)nc3ccnn23)C1 [Compound Z-3] | 0.073 | > 10 | > 10 |
| CC(c1cc(N[C@H]2CC[C@H](N)C2)n2nccc2n1)C1CCC1 (stereo partly drawn) [Compound Z-11] | 0.022 | – | – |
| CC(C)(c1cc(N[C@H]2CC[C@H](N)C2)n2nccc2n1)C1CC1 [Compound Z-12] | 0.02 | > 10 | 2.72 |
| CC(c1cc(N[C@H]2CC[C@H](N)C2)n2nccc2n1)C1CCCC1 (stereo partly drawn) [Compound Z-13] | 0.018 | 7.62 | 1.34 |
| N[C@H]1CC[C@H](Nc2cc(C(C3CC3)C3CC3)nc3c(C4CC4)cnn23)C1 [Compound Z-14] | 0.042 | 2.55 | 1.61 |
| N[C@H]1CC[C@H](Nc2cc(C(C3CC3)C3CC3)nc3c(F)cnn23)C1 [Compound Z-15] | 0.005 | 0.367 | 0.293 |
| CC1(Cc2cc(N[C@H]3CC[C@H](N)C3)n3nccc3n2)CC1 [Compound Z-17] | 0.06 | > 10 | 8.45 |
| C=CC(C)(C)c1cc(N[C@H]2CC[C@H](N)C2)n2nccc2n1 [Compound Z-18] | 0.033 | > 10 | 4.2 |
| C=CC(C)(C)c1cc(N[C@H]2CC[C@H](N)C2)n2ncc(C)c2n1 [Compound Z-19] | 0.092 | > 10 | > 10 |
| CCc1cnn2c(N[C@H]3CC[C@H](N)C3)cc(C(C)C3CC3)nc12 (stereo partly drawn) [Compound Z-20] | 0.034 | 4.39 | 2.42 |
| CC(c1cc(N[C@H]2CC[C@H](N)CC2)n2nccc2n1)C1CC1 (stereo partly drawn) [Compound Z-21] | 0.029 | 3.29 | 4.37 |
| CC(c1cc(N[C@H]2CC[C@H](N)C2)n2nccc2n1)(C1CC1)C1CC1 [Compound Z-22] | 0.013 | 8.64 | 1.77 |
| CC(C)c1cnn2c(N[C@H]3CC[C@H](N)C3)cc(C(C3CC3)C3CC3)nc12 [Compound Z-24] | 0.084 | 2.92 | 2.53 |
| Cc1cnn2c(N[C@H]3CC[C@H](N)C3)cc([C@H](C)C3(C)CC3)nc12 [Compound Z-26-P1] | 0.005 | 1.8 | 1.62 |
| C[C@H](c1cc(N[C@H]2CC[C@H](N)C2)n2nccc2n1)C1(C)CC1 [Compound Z-27-P2] | 0.008 | 2.78 | 2.08 |
| CC(c1cc(N[C@H]2CC[C@H](N)C2)n2nccc2n1)C1(C)CC1 (stereo partly drawn) [Compound Z-27] | 0.009 | 2.82 | 0.772 |
| CC[C@@H](c1cc(N[C@H]2CC[C@H](N)C2)n2nccc2n1)C1CC1 [Compound Z-28-P1] | 0.006 | 4.51 | 2.05 |
| CC1(Cc2cc(N[C@H]3CC[C@H](N)C3)n3ncc(Cl)c3n2)CC1 [Compound Z-29] | 0.011 | 2.06 | 1.89 |
| CC[C@@H](c1cc(N[C@H]2CC[C@H](N)C2)n2ncc(C)c2n1)C1CC1 [Compound Z-30-P2] | 0.022 | 4.91 | 3.54 |
| CCC(c1cc(N[C@H]2CC[C@H](N)C2)n2ncc(C)c2n1)C1CC1 (stereo partly drawn) [Compound Z-30] | 0.01 | 1.55 | 1.36 |
| CC(c1cc(NC2CCNC2)n2ncc(F)c2n1)C1CC1 (stereo not drawn) [Compound Z-31] | 0.104 | 6.39 | 3.21 |
| Cc1cnn2c(N[C@H]3CC[C@H](N)C3)cc([C@H](C)C3CC3)nc12 [Compound Z-32-P1] | 0.099 | > 10 | > 10 |
| Cc1cnn2c(N[C@H]3CC[C@H](N)C3)cc(C(C)(C)C3CC3)nc12 [Compound Z-34] | 0.036 | > 10 | 8.09 |
| CC(C)(c1cc(N[C@H]2CC[C@H](N)C2)n2ncc(Cl)c2n1)C1CC1 [Compound Z-35] | 0.018 | 1.56 | 1.5 |
| Cc1cnn2c(N[C@H]3CC[C@H](N)C3)cc(C(C)C3CCC3)nc12 (stereo partly drawn) [Compound Z-38] | 0.017 | – | – |
